The term Kd denotes the constant that tells how readily two partners part at equilibrium. Higher therefore signals lower affinity. By Km is commonly meant the substrate concentration at which the rate is half of its maximum.

Here are results for 2 molecules from article PMC4304843, “Human Mitochondrial Hsp70 (Mortalin): Shedding Light on ATPase Activity, Interaction with Adenosine Nucleotides, Solution Structure and Domain Organization” (PLoS ONE, 2015).

In assay [1] the target is T1, human mortalin (mtHsp70, GRP75, HspA9, PBP74) (Homo sapiens, UniProt P38646).
T1 construct: monomeric SEC fraction, alkaline phosphatase treated
T1 sequence (P38646 47-679): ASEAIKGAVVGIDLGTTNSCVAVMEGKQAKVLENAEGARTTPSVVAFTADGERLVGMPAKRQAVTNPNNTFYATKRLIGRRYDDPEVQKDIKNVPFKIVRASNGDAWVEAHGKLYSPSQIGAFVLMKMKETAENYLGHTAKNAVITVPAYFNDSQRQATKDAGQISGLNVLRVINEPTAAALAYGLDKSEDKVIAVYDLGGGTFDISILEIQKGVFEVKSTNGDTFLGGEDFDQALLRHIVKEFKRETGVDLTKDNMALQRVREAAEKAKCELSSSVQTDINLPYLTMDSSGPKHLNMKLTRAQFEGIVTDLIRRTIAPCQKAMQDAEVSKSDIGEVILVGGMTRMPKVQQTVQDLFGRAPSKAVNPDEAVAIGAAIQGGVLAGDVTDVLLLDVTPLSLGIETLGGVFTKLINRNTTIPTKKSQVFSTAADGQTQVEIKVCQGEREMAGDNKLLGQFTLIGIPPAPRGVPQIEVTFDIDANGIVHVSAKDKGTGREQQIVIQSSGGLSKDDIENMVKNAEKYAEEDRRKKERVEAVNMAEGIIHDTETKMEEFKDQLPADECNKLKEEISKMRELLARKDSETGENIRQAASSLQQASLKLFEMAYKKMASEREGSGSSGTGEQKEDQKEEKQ
Kind of assay: isothermal titration calorimetry. It is filed as binding.

Another assay has as its target T2, human Hsp70-1A (Homo sapiens, UniProt P0DMV8).
T2 construct: gene HSPA1A; recombinant, expressed in E. coli BL21(DE3) as previously described
Put plainly: ATPase, EnzChek phosphate assay, Michaelis-Menten fit. The settings on record: TKP buffer without phosphate pH 7.5, 2 mM Mg2+, 37°C, no co-chaperone. In kind it is biochemical. The source says: ATPase, EnzChek phosphate assay, Michaelis-Menten fit on human Hsp70-1A

T2 sequence (P0DMV8 2-641): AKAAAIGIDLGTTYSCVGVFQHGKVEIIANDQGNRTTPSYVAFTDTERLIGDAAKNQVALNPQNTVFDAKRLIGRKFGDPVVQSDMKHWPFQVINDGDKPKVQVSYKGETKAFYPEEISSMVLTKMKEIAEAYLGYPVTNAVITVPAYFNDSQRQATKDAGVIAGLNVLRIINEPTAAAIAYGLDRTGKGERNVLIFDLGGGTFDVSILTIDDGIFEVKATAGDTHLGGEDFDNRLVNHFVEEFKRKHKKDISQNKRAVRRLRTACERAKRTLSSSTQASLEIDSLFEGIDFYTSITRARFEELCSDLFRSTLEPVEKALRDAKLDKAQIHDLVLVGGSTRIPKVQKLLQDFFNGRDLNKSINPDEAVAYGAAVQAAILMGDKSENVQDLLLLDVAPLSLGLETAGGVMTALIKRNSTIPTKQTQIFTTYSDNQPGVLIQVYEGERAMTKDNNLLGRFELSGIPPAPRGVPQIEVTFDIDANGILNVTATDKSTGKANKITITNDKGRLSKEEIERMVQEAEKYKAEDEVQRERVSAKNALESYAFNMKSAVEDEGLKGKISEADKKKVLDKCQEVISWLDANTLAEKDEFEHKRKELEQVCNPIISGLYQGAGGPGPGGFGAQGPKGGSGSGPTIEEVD

The molecule `Nc1ncnc2c1ncn2[C@@H]1O[C@H](COP(=O)(O)OP(=O)(O)O)[C@@H](O)[C@H]1O` [ADP] had a Kd in assay [1] of 2200 ± 100 nM.

Molecule `Nc1ncnc2c1ncn2[C@@H]1O[C@H](COP(=O)(O)OP(=O)(O)OP(=O)(O)O)[C@@H](O)[C@H]1O` [ATP] registered a Kd in assay [1] of 1100 ± 100 nM. For the same molecule, the Michaelis-Menten constant (Km) at human Hsp70-1A turned out to be 270 ± 40 µM.
